For 8 compounds, MIC results are on record in patent US5696096A, “Pradimicin derivatives” (Bristol-Myers Squibb Company, priority 1990, dated 1997).

What is called MIC is the lowest concentration found to suppress growth. A higher MIC goes with a need for much substance.

What all share (test): In vitro antifungal activity (MIC), serial agar dilution method
What all share (type): cell-based
Common to all, as to conditions: Sabouraud dextrose agar, 40 hours at 28° C.
On the technique in general: Agar dilution tests growth on a series of plates holding different concentrations.

In assay [1] the test system is Aspergillus fumigatus. How it is done: (§1) Antifungal activities of representative compounds of the present invention were evaluated in vitro. The minimum inhibitory concentrations (MICs) against various fungi were determined by serial agar dilution method using Sabouraud dextrose agar. Thus, approximately 0.003 ml of fungal suspension containing 10^6 cells/ml was applied to the surface of agar plates containing the test antibiotics. The MIC values recorded after the cultures had been incubated for 40 hours at 28° C. are set forth below in Table 1.

Assay [2] relates to Candida albicans. How it is done:
as §1

Assay [3] deals with Cryptococcus neoformans. How it is done: as §1
For assay [4], the system named is Trichophyton mentagrophytes. How it is done:
as §1

Converted amounts (≈) assume the structure as drawn.

In the case of `CN[C@@H]1[C@H](O)[C@@H](O)[C@H](O[C@H]2c3cc(C)c(C(=O)N[C@H](C)C(=O)O)c(O)c3-c3c(cc4c(c3O)C(=O)c3cc(OC)cc(O)c3C4=O)[C@@H]2O)O[C@@H]1C` [Pradimicin B, reference compound], the MIC in assay [1] worked out at 6.3 µg/mL (≈ 8.89 µM); in assay [2] it was 3.1 µg/mL (≈ 4.37 µM); in assay [3], 0.8 µg/mL (≈ 1.13 µM); in assay [4] it was 6.3 µg/mL (≈ 8.89 µM).

As for `CN[C@@H]1[C@H](O[C@H]2OC[C@H](O)[C@@H](O)[C@@H]2O)[C@@H](O)[C@H](O[C@H]2c3cc(C)c(C(=O)N[C@H](C)C(=O)O)c(O)c3-c3c(cc4c(c3O)C(=O)c3cc(OC)cc(O)c3C4=O)[C@@H]2O)O[C@@H]1C` [Example 1, 3'-O-(β-L-xylopyranosyl)pradimicin B], the minimum inhibitory concentration (MIC) in assay [1] was over 100 µg/mL; in assay [2] it was 50 µg/mL (≈ 59.5 µM); in assay [3] it was 1.6 µg/mL (≈ 1.9 µM); in assay [4] it was over 100 µg/mL.

Take `CN[C@@H]1[C@H](O[C@@H]2OC[C@@H](O)[C@H](O)[C@H]2O)[C@@H](O)[C@H](O[C@H]2c3cc(C)c(C(=O)N[C@H](C)C(=O)O)c(O)c3-c3c(cc4c(c3O)C(=O)c3cc(OC)cc(O)c3C4=O)[C@@H]2O)O[C@@H]1C` [Pradimicin A, reference compound]: the minimal inhibitory concentration (MIC) amounted to 1.6 µg/mL (≈ 1.9 µM) in assay [1], 50 µg/mL (≈ 59.5 µM) in assay [2], 0.8 µg/mL (≈ 0.951 µM) in assay [3] and 1.6 µg/mL (≈ 1.9 µM) in assay [4].

On to `CN[C@@H]1[C@H](O[C@@H]2O[C@H](CO)[C@@H](O)[C@H](O)[C@H]2O)[C@@H](O)[C@H](O[C@H]2c3cc(C)c(C(=O)N[C@H](C)C(=O)O)c(O)c3-c3c(cc4c(c3O)C(=O)c3cc(OC)cc(O)c3C4=O)[C@@H]2O)O[C@@H]1C` [Example 6, 3'-O-β-D-glucopyranosylpradimicin B], for which the MIC was determined as 3.1 µg/mL (≈ 3.56 µM) in assay [1], 12.5 µg/mL (≈ 14.4 µM) in assay [2], 1.6 µg/mL (≈ 1.84 µM) in assay [3] and 3.1 µg/mL (≈ 3.56 µM) in assay [4].

For `CN[C@@H]1[C@H](O[C@@H]2O[C@H](C)[C@@H](O)[C@H](O)[C@H]2O)[C@@H](O)[C@H](O[C@H]2c3cc(C)c(C(=O)N[C@H](C)C(=O)O)c(O)c3-c3c(cc4c(c3O)C(=O)c3cc(OC)cc(O)c3C4=O)[C@@H]2O)O[C@@H]1C` [Example 4, 3'-O-(6-Deoxy-β-D-glucopyranosyl)pradimicin B], the MIC in assay [1] turned out to be 3.1 µg/mL (≈ 3.63 µM); in assay [2], 25 µg/mL (≈ 29.2 µM); in assay [3], 1.6 µg/mL (≈ 1.87 µM); in assay [4], 1.6 µg/mL (≈ 1.87 µM).

Regarding `CN[C@@H]1[C@H](O[C@@H]2OC[C@H](O)[C@H](O)[C@H]2O)[C@@H](O)[C@H](O[C@H]2c3cc(C)c(C(=O)N[C@H](C)C(=O)O)c(O)c3-c3c(cc4c(c3O)C(=O)c3cc(OC)cc(O)c3C4=O)[C@@H]2O)O[C@@H]1C` [Example 3, 3'-O-(α-L-Arabinopyranosyl)pradimicin B], the minimum inhibitory concentration (MIC) in assay [1] came out at 6.3 µg/mL (≈ 7.49 µM); in assay [2] it was 6.3 µg/mL (≈ 7.49 µM); in assay [3] it was 1.6 µg/mL (≈ 1.9 µM); in assay [4], 6.3 µg/mL (≈ 7.49 µM).

As for `CN[C@@H]1[C@H](O[C@@H]2OC[C@@H](O)[C@@H](O)[C@H]2O)[C@@H](O)[C@H](O[C@H]2c3cc(C)c(C(=O)N[C@H](C)C(=O)O)c(O)c3-c3c(cc4c(c3O)C(=O)c3cc(OC)cc(O)c3C4=O)[C@@H]2O)O[C@@H]1C` [Example 2, 3'-O-(β-D-Ribopyranosyl)-pradimicin B], the minimum inhibitory concentration (MIC) in assay [1] was 12.5 µg/mL (≈ 14.9 µM); in assay [2], over 25 µg/mL; in assay [3], 1.6 µg/mL (≈ 1.9 µM); in assay [4], 25 µg/mL (≈ 29.7 µM).

As for `CN[C@@H]1[C@H](O[C@@H]2O[C@H](C)[C@H](O)[C@H](O)[C@H]2O)[C@@H](O)[C@H](O[C@H]2c3cc(C)c(C(=O)N[C@H](C)C(=O)O)c(O)c3-c3c(cc4c(c3O)C(=O)c3cc(OC)cc(O)c3C4=O)[C@@H]2O)O[C@@H]1C` [Example 5, 3'-O-(β-D-Fucopyranosyl)pradimicin B], the MIC in assay [1] is 3.1 µg/mL (≈ 3.63 µM); in assay [2] it was 6.3 µg/mL (≈ 7.37 µM); in assay [3], 1.6 µg/mL (≈ 1.87 µM); in assay [4], 1.6 µg/mL (≈ 1.87 µM).
